From US6380193B1, “Fused tricyclic compounds, methods and compositions for inhibiting PARP activity” (Guilford Pharmaceuticals Inc., priority 1998, dated 2002)

How the values were obtained:
[1] = test system: cell viability, glucose metabolism, and DNA synthesis; conditions: cited from earlier work
C57/BL male mice = test: Septic shock assay (LPS plus galactosamine challenge); format: in vivo, mouse; conditions: 60, 20, 6 and 2 mg/kg daily IP for three days, first dose 30 minutes after challenge
Experimental: Groups of 10 C57/BL male mice weighing 18 to 20 g were administered a test compound, 1-carboxynaphthalene-1-carboxamide at the doses of 60, 20, 6 and 2 mg/kg, daily, by intraperitoneal (IP) injection for three consecutive days. Each animal was first challenged with lipopolysaccharide (LPS, from E. Coli, LD100 of 20 mg/animal IV) plus galactosamine (20 mg/animal IV). The first dose of test compound in a suitable vehicle was given 30 minutes after challenge, and the second and third doses were given 24 hours later on day 2 and day 3 respectively, with only the surviving animals receiving the second or third dose of the test compound. Mortality was recorded every 12 hours after challenge for the three-day testing period. 1-Carboxy-naphthalene-1-carboxamide provided a protection against mortality from septic shock of about 40%.

[2] = test system: focal cerebral ischemia in male Long-Evans rats; test: Focal cerebral ischemia in rats (right distal MCA cauterization with bilateral temporary CCA occlusion), infarct by TTC staining; format: in vivo, rat
Experimental: Focal cerebral ischemia was produced by cauterization of the right distal MCA (middle cerebral artery) with bilateral temporary common carotid artery occlusion in male Long-Evans rats for 90 minutes. All procedures performed on the animals were approved by the University Institutional Animal Care and Use Committee of the University of Pennsylvania. A total of 42 rats (weights: 230-340 g) obtained from Charles River were used in this study. The animals fasted overnight with free access to water prior to the surgical procedure.
Two hours prior to MCA occlusion, varying amounts (control, n=14; 5 mg/kg, n=7; 10 mg/kg, n=7; 20 mg/kg, n=7; and 40 mg/kg, n=7) of the compound, 3,4-dihydro-5-[4-(1-piperidinyl)-butoxy]-1(2H)-isoquinolinone (“DPQ”) were dissolved in dimethyl sulfoxide (DMSO) using a sonicator. A volume of 1.28 ml/kg of the resulting solution was injected intraperitoneally into […].
Focal cerebral ischemia was produced by cauterization of the distal portion of the right MCA with bilateral temporary common carotid artery (CCA) occlusion by the procedure of Chen et al., “A Model of Focal Ischemic Stroke in the Rat: Reproducible Extensive Cortical Infarction”, Stroke 17:738-43 (1986) and/or Liu et al., “Polyethylene Glycol-conjugated Superoxide Dismutase and Catalase Reduce Ischemic Brain Injury”, Am. J. Physiol. 256:H589-93 (1989), both of which are hereby incorporated by reference. […]
Two hours after MCA occlusion, the animals were given the same doses of the PARP inhibitor as in the pre-treatment. […] To avoid artifacts due to edema, the damaged area was calculated by subtracting the area of the normal tissue in the hemisphere ipsilateral to the stroke from the area of the hemisphere contralateral to the stroke, by the method of Swanson et al., “A Semiautomated Method for Measuring Brain Infarct Volume”, J. Cereb. […] The total volume of infarction was calculated by summation of the damaged volume of the brain slices.

[3] = test system: human fibroblast cells lines (W138 or BJ cells); test: Proliferative capacity and lifespan of cells; format: cell-based
Experimental: At the time of subdivision, the media is aspirated, and the cells rinsed with phosphate buffer saline (PBS) and then trypsinized. The cells are counted with a Coulter counter and plated at a density of 10^5 cells per cm^2 in 6-well tissue culture plates in DMEM/199 medium supplemented with 10% bovine calf serum and varying amounts ([…]: from a 100× stock solution in DMEM/M199 medium) of a PARP inhibitor of Formula I as disclosed herein. This process is repeated every 7 days until the cell appear to stop dividing. The untreated (control) cells reach senescence and stop dividing after about 40 days in culture. […] The cells treated with 1 mM 3-AB will still divide after 60 days in culture.

colitis in rats = conditions: rat, in vivo; cited from earlier work
endotoxic shock = conditions: in vivo; cited from earlier work

For NC(=O)c1ccccc1 [benzamide], the additional metabolic effects [1] is listed as “shown to affect cell viability, glucose metabolism, and DNA synthesis”.
For NC(=O)C1(C(=O)O)CC=Cc2ccccc21 (centres unmarked) [1-Carboxy-naphthalene-1-carboxamide, 1-carboxynaphthalene-1-carboxamide], the “protection against mortality from septic shock” value (C57/BL male mice) was “about 40%”.
With O=C1NCCc2c(OCCCCN3CCCCC3)cccc21 [DPQ, 3,4-dihydro-5-[4-(1-piperidinyl)-butoxy]-1(2H)-isoquinolinone] the “cross-sectional infarct area curve (FIG. 1)” value ([2]; 5 mg/kg) was “approximately halfway between the control and the 10 mg/kg curves”, the “cross-sectional infarct area curve (FIG. 1)” value ([2]; 20 mg/kg) was “approximately halfway between the control and the 10 mg/kg curves” and the “cross-sectional infarct area curve (FIG. 1)” value ([2]; 40 mg/kg) was “close to the control”.
For NC(=O)c1cccc(N)c1 [3-aminobenzamide], the “lifespan and proliferative capacity of the cells” value ([3]; 10 uM) was “little or no effect”, the “lifespan and proliferative capacity of the cells” value ([3]; 100 uM) was “lengthen the lifespan of the cells” and the “lifespan and proliferative capacity of the cells” value ([3]; 1 mM) was “dramatically increases the lifespan and proliferative capacity of the cells”. The “inflammatory response, morphology and energetic status of the distal colon” value (colitis in rats) was “reduced the inflammatory response and restored the morphology and the energetic status of the distal colon” and the additional metabolic effects [1] was “shown to affect cell viability, glucose metabolism, and DNA synthesis”.
For NC(=O)c1cccnc1 [nicotinamide], the “delayed, NO-mediated vascular failure” value (endotoxic shock) is given as “protects against delayed, NO-mediated vascular failure in endotoxic shock”.
